In one assay the test system is Tr1 cells. Nature of the assay: In vitro mouse Tr1 cell differentiation. The conditions noted are these: agomelatine 20 ng/ml, CGP 52608 20 ng/ml. In kind it is cell-based. As for the experimental part: (§1) Naive CD4+ T cells (CD4+CD44loCD62LhiCD25−) were from the spleen and lymph node of C57BL/6 wild-type, MTNR1A−, NFIL3−, REV-ERBα, C/EBPα-deficient or RORα-deficient mice using magnetic beads (CD4+ T cell isolation kit, Miltenyi Biotec). All experiments were started between 7 and 9 am. Cells were activated with plate-bound anti-CD3 (2 μg/ml; 14-0031-86; eBioscience) and anti-CD28 (2 μg/ml; 16-0281-86; eBioscience). Mouse IL-27 (30 ng/ml; 34-8271; Biolegend) was added for the generation of Tr1 cells. IL-6 (30 ng/ml; 406-ML-025; R&D Systems), TGF-β1 (15 ng/ml; 130-095-067; Miltenyi Biotec), anti-IL-4 (2.5 μg/ml; C17.8; Biolegend) and anti-IFN-γ (5 μg/ml; XMG1.2; Biolegend) were added for the generation of Th17 cells. Recombinant mouse IL-23 (30 ng/ml; 1887-ML-010; R&D Systems) was added at day 2. For some experiments IL-6 and […] (10 ng/ml; 401-ML-025; R&D Systems) or TGF-β1 and IL-21 (100 ng/ml; 594-ML-010; R&D Systems) were used in instead for Th17 cell differentiation. IL-12 (30 ng/ml; 419-ML-010; R&D Systems) and anti-IL-4 (2.5 μg/ml; C17.8; Biolegend) were used for the generation of Th1 cells. IL-4 (30 ng/ml; 404-ML-010; R&D Systems) and anti-IFN-γ (5 μg/ml; XMG1.2; Biolegend) was added for the generation of Th2 cells. TGF-β1 (15 ng/ml; 130-095-067; Miltenyi Biotec) was used for the generation of Foxp3+ Tregs. Melatonin (Gador, Argentina), Agomelatin, and CGP-52608 (Sigma-Aldrich) were added at the start of the cultures and at day 2, at a final concentration of 2-20 ng/ml.

For assay [1], the system named is murine Th17 cell differentiation. Nature of the assay: In vitro mouse Th17 cell differentiation. In kind it is cell-based. The conditions noted are these: for differentiation of Th17 cells (rorc, IL-17, IL-23 receptor): wild type, melatonin 2 ng/ml, agomelatine 20 ng/ml, ramelteon 10 ng/ml, CGP 52608 20 ng/ml. As to the method: For intracellular cytokine staining, cells were stimulated for 4 h at 37° C. with phorbol 12-myristate 13-acetate (50 ng/ml; Sigma), ionomycin (1 μg/ml; Sigma) and monensin (GolgiStop; 1 μg/ml; BD Biosciences). After being stained for surface markers, cells were fixed and made permeable according to the manufacturer's instructions (BD Biosciences). All antibodies against cytokines were from Biolegend. All experiments were started at the same time (8-9 am). Data were collected with a LSR II or FACSAria (BD Biosciences), then were analyzed with FlowJo software (Treestar).
as §1
(§2) Secreted cytokines were measured in tissue culture supernatants after 72-96 hs by enzyme-linked immunosorbent assay as previously described (Farez et al., 2009).

For a further assay, the target named is T1, MT2 melatonin receptor (Homo sapiens, UniProt P49286).
T1 sequence (P49286 1-362): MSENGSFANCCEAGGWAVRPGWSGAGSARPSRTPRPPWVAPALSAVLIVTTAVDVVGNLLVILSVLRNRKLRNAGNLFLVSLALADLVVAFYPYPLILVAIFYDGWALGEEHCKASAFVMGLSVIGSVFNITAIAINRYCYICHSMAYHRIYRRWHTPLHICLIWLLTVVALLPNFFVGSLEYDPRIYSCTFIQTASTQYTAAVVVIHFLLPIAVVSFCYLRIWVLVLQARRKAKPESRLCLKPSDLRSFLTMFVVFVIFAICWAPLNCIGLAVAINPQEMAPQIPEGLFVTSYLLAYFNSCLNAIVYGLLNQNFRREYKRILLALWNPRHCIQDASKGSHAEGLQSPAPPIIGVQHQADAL
As to conditions: nonselective ligand; cited from earlier work.

Assay [2] has as its system nr1d1 reporter-transfected HEK293 cells. Nature of the assay: nr1d1 promoter luciferase reporter assay. In kind it is cell-based. As to conditions: nr1d1 promoter controls luciferase expression. The text has this: The IL-10 promoter reporter and C-Maf and AhR vectors were previously described (Apetoh et al., 2010), vector expressing ROR-α were purchased from PlasmID at Harvard Medical School. Vectors coding for C/EBPα (44627) and Bmal reporter (46824) were purchased from Addgene. The retrovirus used for nfil3 overexpression in T cells was graciously provided by Laura Hooper (UT Southwestern, TX, USA). The retrovirus used for nr1d1 overexpression in T cells was graciously provided by Bart Staels (Institut Pasteur, Lille, France, […]). The nr1d1 promoter reporter was graciously provide by Vincent Laudent (Ecole Normale Supérieure, Lyon, France).
HEK293 cells were grown in DMEM supplemented with 10% FBS and were transfected with FuGENE HD transfection reagent and 2 μg of each plasmids according the manufacturer's instructions (Roche). Firefly and renilla luciferase activity was analyzed 48 h after transfection and 24 h after treatment with a Dual Luciferase Assay kit (Promega).

Assay [3] relates to human CD4+ T cells activated under Th17 polarizing conditions. Description: In vitro human Th17 differentiation. In kind it is cell-based. The conditions noted are these: 500 ng/ml. As for the experimental part: (§3) In vitro human T cell differentiation. For Th17 differentiation, naive CD45RA+ CD4+ T cells were isolated from PBMCs with magnetic beads (Naive Human CD4+ T Cell Isolation Kit II, Miltenyi Biotec) and seeded at a density of 5×10^5 cells/ml in 24-well plates coated with anti-CD3 and (2 μg/ml) and soluble anti-CD28 and cultured in the presence of the following cytokines IL-1β (25 ng/ml), IL-6 (50 ng/ml), and TGF-β1 (2 ng/ml) and neutralizing antibodies to IFN-g ([…]) and IL-4 (10 microgram/ml). Alternatively, Th17 cells were differentiated by using IL-1β (25 ng/ml), IL-6 (50 ng/ml), and IL-23 (50 ng/ml) and neutralizing antibodies to IFN-g ([…]) and IL-4 (10 microgram/ml). For Th1 differentiation naïve CD4+T cells are cultured in the presence of IL-12 (20 ng/ml) and anti-IL-4 (10 μg/ml).
as §2

The next assay has as its system human Th1 cells. Description: In vitro human Th1 differentiation. The conditions noted are these: 500 ng/ml; IL-12. In kind it is cell-based. As for the experimental part:
as §3

Assay [4] has as its system human CD4+ T cells activated under Tr1 polarizing conditions. Description: In vitro human Tr1 differentiation. In kind it is cell-based. As to conditions: 500 ng/ml. The text has this: We then studied the effects of melatonin on human CD4^+ T cells. In addition, we also analyzed the effects of agomelatine, which activates melatonin-dependent signaling (Hickie and Rogers, 2011). Based on the effects of melatonin administration on T cells during EAE, we focused our studies on human Th17 and Tr1 cells. Melatonin and agomelatine reduced the production of IL-17, RORC and IL17A expression by human CD4^+ T cells activated under Th17 polarizing conditions (FIGS. 3a-c and FIG. 8), no effect was detected on the differentiation of human Th1 cells (FIGS. 3d-f). Concomitantly, melatonin and agomelatine increased IL10 expression.

Molecules are shown by their SMILES.

In the case of `C=CCN1C(=O)CS/C1=N/NC(=S)NC` [CGP 52608], in the assay with Tr1 cells, the Tr1 cell differentiation result is given as “boosted”. The “differentiation of Th17 cells (rorc, IL-17, IL-23 receptor)” value (“differentiation of Th17 cells” for short) in assay [1] is reported as “boosted”.

`CC(=O)NCCc1c(Cc2ccccc2)[nH]c2ccccc12` [Luzindole, N-[2-(2-benzyl-1H-indol-3-yl)ethyl]acetamide]: the “higher affinity for the MT2 melatonin receptor” value at MT2 melatonin receptor was 15- to 25 fold.

In the case of `CCOC(=O)N1CCC(CN(Cc2ccc(Cl)cc2)Cc2ccc([N+](=O)[O-])s2)C1` (stereo not drawn) [SR9009], the “differentiation into Th17 cells (RT-PCR)” value in assay [1] (SR9009 5 micromolar, 72 hr) is recorded as “suppresses”.

For `COc1ccc2cccc(CCNC(C)=O)c2c1` [agomelatine, N-[2-(7-methoxynaphthalen-1-yl)ethyl]acetamide], in the assay on Tr1 cells, the Tr1 cell differentiation result is “boosted”. Moreover, in assay [2], the luciferase activity result is “decreased”. For the same compound, in assay [3], the “production of IL-17, RORC and IL17A expression” value is “reduced”. In addition, in assay [3] (Th17 polarizing conditions), the IL10 expression result is recorded as “increased”. Also, the “differentiation of Th17 cells” value in assay [1] is “suppressed”. In addition, the “differentiation of human Th1 cells” value in the assay on human Th1 cells is “no effect”. Besides, the IL-10 production entry in assay [4] is given as “increased”.

In the case of `CCC(=O)NCC[C@@H]1CCc2ccc3c(c21)CCO3` [ramelteon, (S)—N-[2-(1,6,7,8-tetrahydro-2H-indeno[5,4-b]furan-8-yl)ethyl]propionamide], the “differentiation of Th17 cells” value in assay [1] is on record as “suppressed”.

The values are drawn from patent publication US10555919B2, “Melatonin in autoimmune disease” (The Brigham and Women's Hopsital, Inc., priority 2014, dated 2020).
